From the supplement of paper PMC13380429

Key:
Conditions in all cases: 72 h
[1] = test system: Caco-2; assay: cell viability relative to DMSO; higher = less toxic
[2] = test system: Calu-3; assay: as above
[3] = test system: HepG2; assay: as above
[4] = test system: U2OS; assay: as above
[5] = test system: Vero E6; assay: as above
[6] = test system: Caco-2; assay: relative viability EC50 (midpoint between 100% and the lowest measured viability); higher = less toxic
[7] = test system: Calu-3; assay: as above
[8] = test system: HepG2; assay: as above
[9] = test system: U2OS; assay: as above
[10] = test system: Vero E6; assay: as above
[11] = test system: Caco-2; assay: drug sensitivity score (DSS) for viability; higher = more toxic; extreme values may be limits of the assay
[12] = test system: Calu-3; assay: as above
[13] = test system: HepG2; assay: as above
[14] = test system: U2OS; assay: as above
[15] = test system: Vero E6; assay: as above

Structure (SMILES)	cell viability ([1]; 1 nM) [%]	cell viability ([1]; 10 nM) [%]	cell viability ([1]; 100 nM) [%]	cell viability ([1]; 1000 nM) [%]	cell viability ([1]; 10000 nM) [%]	cell viability ([2]; 1 nM) [%]	cell viability ([2]; 10 nM) [%]	cell viability ([2]; 100 nM) [%]	cell viability ([2]; 1000 nM) [%]	cell viability ([2]; 10000 nM) [%]	cell viability ([3]; 1 nM) [%]	cell viability ([3]; 10 nM) [%]	cell viability ([3]; 100 nM) [%]	cell viability ([3]; 1000 nM) [%]	cell viability ([3]; 10000 nM) [%]	cell viability ([4]; 1 nM) [%]	cell viability ([4]; 10 nM) [%]	cell viability ([4]; 100 nM) [%]	cell viability ([4]; 1000 nM) [%]	cell viability ([4]; 10000 nM) [%]	cell viability ([5]; 1 nM) [%]	cell viability ([5]; 10 nM) [%]	cell viability ([5]; 100 nM) [%]	cell viability ([5]; 1000 nM) [%]	cell viability ([5]; 10000 nM) [%]	relative viability EC50 [6] [µM]	relative viability EC50 [7] [µM]	relative viability EC50 [8] [µM]	relative viability EC50 [9] [µM]	relative viability EC50 [10] [µM]	drug sensitivity score [11]	drug sensitivity score [12]	drug sensitivity score [13]	drug sensitivity score [14]	drug sensitivity score [15]
CNCCc1ccc(O)c(O)c1 [deoxyepinephrine]	95.5	95.8	106	102	89.6	94.5	104	95.8	91.6	98.1	97.5	97.2	108	91.8	96.7	95	97	94.3	101	95.5	107	99.6	100	101	103	> 10	> 10	> 10	> 10	> 10	0	0	0	0	0
C=CCSCC1Nc2cc(Cl)c(S(N)(=O)=O)cc2S(=O)(=O)N1 (stereo not given) [althiazide]	90.1	96.8	93	90.9	89.8	111	94.8	112	112	101	109	116	94.2	102	107	96.1	95.5	100	96.9	100	97.8	97.2	98.8	104	112	> 10	> 10	> 10	> 10	> 10	0	0	0	0	0
CN(C)c1ccc(/C=C2\CCCN=C2c2cccnc2)cc1 [DMAB-anabaseine]	103	107	103	120	76.2	101	109	139	105	88.8	109	90.2	98.2	99.7	87.4	94.2	96.4	97.4	94.4	93.6	105	92.4	99.3	93.5	91.5	> 10	> 10	> 10	> 10	> 10	0.4	0	0.1	0	0
Nc1nc(Nc2ccccc2)nc2c1ncn2[C@@H]1O[C@H](CO)[C@@H](O)[C@H]1O [CV-1808]	98.9	93	101	105	99.3	101	106	93	110	106	95.4	94.2	109	98.8	94.9	103	100	98.5	106	105	94	93	94.5	96.3	97.2	> 10	> 10	> 10	> 10	> 10	0	0	0	0	0
Cc1c(C)c2c(c(C)c1O)CCC(C)(COc1ccc(CC3SC(=O)NC3=O)cc1)O2 (stereo not given) [troglitazone]	89	116	106	93.4	106	112	98.2	110	98.4	108	87.7	103	104	90.6	98.5	95.2	100	95	101	101	101	92.2	101	95.9	101	> 10	> 10	> 10	> 10	> 10	0	0	0	0	0
[O-][n+]1cccc(CO)c1 [mepiroxol]	97.3	95.1	94.3	104	103	103	112	99.4	109	104	90.9	118	104	96.3	97	100	99.2	104	99.2	99.2	92.1	97.9	89.3	98.9	108	> 10	> 10	> 10	> 10	> 10	0	0	0	0	0
CSCC1CN(/N=C/c2ccc([N+](=O)[O-])o2)C(=O)O1 (stereo not given) [inimur]	90.6	97.7	92.7	94.5	89.4	89.9	97.4	96.8	104	101	100	93.8	96.5	94.3	93	98.2	101	95.8	101	105	96.6	96.4	89.7	89	95	> 10	> 10	> 10	> 10	> 10	0	0	0	0	0
